Source: the NIST ThermoML archive (doi:10.1021/je050389b)

Experiment: xn = mol fraction of the nth substance listed
Conditions: Liquid; for viscosity: 100.5 kPa; for mass density: 101 kPa

CCOC(=O)c1ccccc1 [ethyl benzoate] + CCO
Conditions	mass density, 288.15 K [kg/m3]	mass density, 298.15 K [kg/m3]	mass density, 308.15 K [kg/m3]	mass density, 318.15 K [kg/m3]	viscosity, 288.15 K [mPa·s]	viscosity, 298.15 K [mPa·s]	viscosity, 308.15 K [mPa·s]	viscosity, 318.15 K [mPa·s]
x1 = 0.05	824.59	815.81	806.92	797.88	1.342	1.108	0.926	0.778
x1 = 0.1	851.02	842.08	833.03	823.84	1.36	1.123	0.938	0.793
x1 = 0.15	874.07	865.01	855.84	846.52	1.388	1.148	0.959	0.812
x1 = 0.2	894.37	885.22	875.95	866.54	1.425	1.176	0.984	0.833
x1 = 0.25	912.35	903.11	893.77	884.29	1.465	1.208	1.012	0.857
x1 = 0.3	928.37	919.07	909.68	900.15	1.51	1.244	1.042	0.881
x1 = 0.35	942.79	933.45	924.02	914.45	1.557	1.282	1.072	0.908
x1 = 0.4	955.85	946.47	937	927.41	1.607	1.321	1.105	0.935
x1 = 0.45	967.71	958.3	948.81	939.2	1.661	1.363	1.138	0.964
x1 = 0.5	978.51	969.07	959.57	949.95	1.715	1.405	1.173	0.993
x1 = 0.55	988.43	978.97	969.46	959.84	1.773	1.449	1.209	1.024
x1 = 0.6	997.48	988.07	978.54	968.93	1.833	1.496	1.247	1.055
x1 = 0.65	1005.91	996.46	986.94	977.35	1.895	1.544	1.286	1.089
x1 = 0.7	1013.67	1004.22	994.7	985.12	1.959	1.595	1.326	1.124
x1 = 0.75	1020.94	1011.5	1002.01	992.45	2.028	1.649	1.37	1.159
x1 = 0.8	1027.63	1018.2	1008.72	999.19	2.099	1.705	1.416	1.198
x1 = 0.85	1033.99	1024.57	1015.13	1005.64	2.178	1.767	1.465	1.241
x1 = 0.9	1039.87	1030.48	1021.06	1011.62	2.267	1.836	1.521	1.288
x1 = 0.95	1045.45	1036.09	1026.72	1017.33	2.373	1.917	1.582	1.335
x1 = 1	1050.78	1041.42	1032.07	1022.73	2.444	1.971	1.624	1.368
